Measured values from patent US10472686B2, “Mechanisms of antimicrobial susceptibility” (Roche Molecular Systems, Inc., priority 2015, dated 2019).

Tests used:
[1] = test system: NDM-1-expressing E. coli; assay type: cell-based; details: Smarticles assay, clinical isolates
Experimental: (§1) Thus, the ability to quickly detect viable Gram-negative bacteria, determine their susceptibility to carbapenems, and distinguish between carbapenem resistance mechanisms could aid physicians in considering such therapeutic options in the future. […] In this study, a Smarticles™ assay was evaluated for its ability to detect carbapenem resistant E. coli and distinguish between NDM-1 and KPC-expressing organisms.
(§2) Methods: 26 clinical isolates of E. coli, Klebsiella spp., Enterobacter spp., Citrobacter spp., Proteus spp., and S. marcescens were evaluated using the Smarticles™ assay and ertapenem disk diffusion. CRE isolates included organisms expressing blaKPC and blaNDM-1. The Smarticles™ assay was used with the addition of the chelating agent edetic acid (EDTA) and β-lactamase inhibitor boronic acid to scrutinize clinical isolates of E. coli expressing NDM-1 and KPC.

[2] = test system: NDM-1-expressing E. coli; assay: NRTP luciferase live cell reporter assay, NDM-1 detection (Example 1); assay type: cell-based; details: 2 hours at 37° C.; for luminescence signal (% RLU normalized to No Antibiotic): FIG. 2
Experimental: An NDM-1 detection assay is produced using a luciferase-expressing non-replicative transduction particle specific to Enterobacteriaceae (as described in PCT/US2014/026536, Example 1), ertapenem, and the chelator Ethylenediaminetetraacetic acid (EDTA).
A culture of a clinical isolate of an NDM-1-expressing E. coli was prepared in LB media and used to determine the response of the NRTP reporter in the presence of ertapenem, EDTA, and Zinc. The assay was prepared by mixing 50 μL of the cell culture at an OD600 of 0.02 to 50 μL of LB media and 100 μL of NRTP reagent prepared in a microwell plate. The assay was incubated for 2 hours at 37° C. under the following conditions: (1) No additives, (2) with the addition of ertapenem at 0.25 μg/mL, (3) with the addition of ertapenem and EDTA at 750 μg/mL, and (4) with the addition of ertapenem and Zinc sulfate at 70 μg/mL. After the incubation, the samples were assayed for luminescence after the injection of a nonanal reagent as a substrate for the live cell reporter using a Molecular Devices SpectraMax L luminometer.
The luminescence readings were then normalized to those produced by sample (1) and plotted as a percentage relative to sample (1) as shown in FIG. 2.

[3] = test system: KPC-expressing E. coli; assay: Smarticles live cell luminescence assay with inhibitors (Example 4); assay type: cell-based; details: clinical isolates
Experimental: as §1, §2

[4] = test system: Class B carbapenemases (e.g. NDM-1); details: background statement; cited from earlier work
[5] = test system: Class A carbapenemases (e.g. KPC); details: background statement; cited from earlier work
[6] = test system: KPC-expressing E. coli; assay: NRTP luciferase live cell reporter assay, KPC detection (Example 2); assay type: cell-based; details: 2 hours at 37° C.
Experimental: In another embodiment of the invention, a KPC detection assay is produced using a luciferase-expressing non-replicative transduction particle specific to Enterobacteriaceae as described in PCT/US2014/026536, Example 1, ertapenem and the β-lactamase inhibitor boronic acid.
A culture of a clinical isolate of a KPC-expressing E. coli was prepared in LB media and used to determine the response of the NRTP reporter in the presence of ertapenem, and boronic acid. The replicates of the assay were prepared mixing 50 μL of the cell culture at an OD600 of 0.02 to 50 μL of LB media and 100 μL of NRTP reagent prepared in a microwell plate. The assay was incubated for 2 hours at 37° C. under the following conditions: (1) No additives, (2) with the addition of ertapenem at 1 μg/mL, and (3) with the addition of ertapenem and phenyl boronic acid 400 μg/mL. After the incubation, the samples were assayed for luminescence after the injection of a nonanal reagent as a substrate for the live cell reporter using a Molecular Devices SpectraMax L luminometer.
The luminescence readings were then normalized to those produced by sample (1) and plotted as the average percentage relative to sample (1) as shown in FIG. 1.

O=C(O)CN(CCN(CC(=O)O)CC(=O)O)CC(=O)O [EDTA, Ethylenediaminetetraacetic acid]
assay signal in the presence of the inhibitor [1]: inhibited | luminescence signal (% RLU normalized to No Antibiotic) ([2]; ertapenem 0.25 μg/mL and EDTA 750 μg/mL): significantly decreased | assay signal in the presence of the inhibitor [3]: not inhibited

O=C(NC1CCNCC1)[C@@H]1CC[C@@H]2CN1C(=O)N2OS(=O)(=O)O [Relebactam]
activity against Class B carbapenemases [4]: not against | activity against Class A carbapenemases [5]: shown activity

O=S(=O)([O-])[O-].[Zn+2] [Zinc, Zinc sulfate]
luminescence signal (% RLU normalized to No Antibiotic) ([2]; ertapenem 0.25 μg/mL and Zinc sulfate 70 μg/mL): significantly increased

OB(O)c1ccccc1 [boronic acid, phenyl boronic acid]
assay signal in the presence of the inhibitor [1]: not inhibited | luminescence signal (% RLU normalized to No Antibiotic) ([6]; ertapenem 1 μg/mL and phenyl boronic acid 400 μg/mL): significantly decreased | assay signal in the presence of the inhibitor [3]: inhibited

C[C@@H](O)[C@H]1C(=O)N2C(C(=O)O)=C(S[C@@H]3CN[C@H](C(=O)Nc4cccc(C(=O)O)c4)C3)[C@H](C)[C@H]12 [ertapenem]
luminescence signal (% RLU normalized to No Antibiotic) ([2]; ertapenem 0.25 μg/mL alone): not significantly decreased | susceptibility phenotype ([2]; ertapenem 0.25 μg/mL): non-susceptible | luminescence signal (% RLU normalized to No Antibiotic) ([6]; ertapenem 1 μg/mL alone): not significantly decreased | susceptibility phenotype ([6]; ertapenem 1 μg/mL): non-susceptible
